This is an account of results in patent US20250313572A1, “MACROCYCLIC MCL-1 INHIBITORS AND METHODS OF USE” (AbbVie Inc., priority 2017, published 2025).

One experiment concerns the target GST-MCL-1 (Homo sapiens, UniProt Q07820). The experiment is described as follows: TR-FRET MCL-1 binding assay (competition with probe F-Bak). A digest of the protocol: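 Test compounds, 11 three-fold dilutions from 25 μM final, incubated 2 hours at room temperature with GST-MCL-1, F-Bak probe and Tb-anti-GST antibody. TR-FRET read at 340/35 nm excitation with 520/525 and 495/510 nm emission. Run without human serum and with 10% HS.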
Background: In TR-FRET formats the signal depends on donor and acceptor labels being close together.

Experiment [1] has as its system AMO-1 human multiple myeloma tumor cell line. Briefly: AMO-1 cell viability assay (CellTiter-Glo, 24 hours). Format: cell-based. As to conditions: Homo sapiens, AMO1, 24 h, read-out: AMO-1 Viability IC50 (μM, 10% FBS), 10% FBS, 24 hours of compound treatment. Background: ATP-based viability assays read luminescence as a measure of living cells.
In experiment [2] the test system is NCI-H929 human multiple myeloma tumor cell line. Briefly: NCI-H929 cell viability assay (CellTiter-Glo, 24 hours). Format: cell-based. As to conditions: Homo sapiens, NCI-H929, 24 h, read-out: H929 Viability IC50 (μM, 10% FBS), 10% FBS, 24 hours of compound treatment.
[3] abbreviates: MCL-1 Binding Ki (nM, 10% HS), in the presence of 10% HS (human serum).
Where [4] appears, read: without HS, read-out: MCL-1 Binding Ki.

The structures appear in SMILES notation. Where two headings read alike, the source gives them in different places.

Sequence of GST-MCL-1 (Q07820 whole entry): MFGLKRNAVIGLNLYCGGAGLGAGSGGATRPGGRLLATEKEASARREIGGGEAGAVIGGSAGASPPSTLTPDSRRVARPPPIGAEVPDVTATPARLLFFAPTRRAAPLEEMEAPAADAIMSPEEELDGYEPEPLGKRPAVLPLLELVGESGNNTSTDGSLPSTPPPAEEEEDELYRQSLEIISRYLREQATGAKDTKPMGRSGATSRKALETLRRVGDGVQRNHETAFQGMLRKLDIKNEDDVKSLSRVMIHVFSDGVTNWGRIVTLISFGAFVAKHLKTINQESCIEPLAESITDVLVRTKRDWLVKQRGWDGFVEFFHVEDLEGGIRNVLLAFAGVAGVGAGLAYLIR

As for `Cc1c(Cl)c2c(Cl)c(C)c1-c1c(-c3ccc(F)cc3)sc3ncnc(c13)O[C@@H](C(=O)O)Cc1cc(ccc1OCc1ccnc(-c3cccc(CN4CCOCC4)c3)n1)OC[C@@H](CN1CCN(C)CC1)O2` [Example 147, (7R,16R)-19,23-dichloro-1-(4-fluorophenyl)-20,22-dimethyl-16-[(4-methylpiperazin-1-yl)methyl]-10-[(2-{3-[(morpholin-4-yl)methyl]phenyl}pyrimidin-4-yl)methoxy]-7,8,15,16-tetrahydro-18,21-etheno-13,9-(metheno)-6,14,17-trioxa-2-thia-3,5-diazacyclononadeca[1,2,3-cd]indene-7-carboxylic Acid], the Ki on GST-MCL-1 (setting [3]) amounted to 0.098 nM; on GST-MCL-1 (setting [4]) it was 0.002 nM. Besides, the IC50 in experiment [1] is 0.204 nM; in experiment [2], 0.162 nM.

As for `Cc1c(Cl)c2c(Cl)c(C)c1-c1c(-c3ccc(F)cc3)sc3ncnc(c13)O[C@@H](C(=O)O)Cc1cc(ccc1OCc1ccnc(-c3cccc(CP(C)(C)=O)c3)n1)OC[C@@H](CN1CCN(C)CC1)O2` [Example 51, (7R,16R)-19,23-dichloro-10-[(2-{3-[(dimethylphosphoryl)methyl]phenyl}pyrimidin-4-yl)methoxy]-1-(4-fluorophenyl)-20,22-dimethyl-16-[(4-methylpiperazin-1-yl)methyl]-7,8,15,16-tetrahydro-18,21-etheno-13,9-(metheno)-6,14,17-trioxa-2-thia-3,5-diazacyclononadeca[1,2,3-cd]indene-7-carboxylic Acid], the values for the Ki on GST-MCL-1 (setting [3]) and at GST-MCL-1 (setting [4]) were 0.076 nM and 0.011 nM, respectively. The IC50 was determined as 3.4 nM in experiment [1] and 6.71 nM in experiment [2].

For the molecule `Cc1c(Cl)c2c(Cl)c(C)c1-c1c(-c3ccc(F)cc3)sc3ncnc(c13)O[C@@H](C(=O)O)Cc1cc(ccc1OCc1ccnc(N3CCOCCOCCOCCOCCOCC3)n1)OC[C@@H](CN1CCN(C)CC1)O2` [Example 116, (7R,16R)-19,23-dichloro-1-(4-fluorophenyl)-20,22-dimethyl-16-[(4-methylpiperazin-1-yl)methyl]-10-{[2-(1,4,7,10,13-pentaoxa-16-azacyclooctadecan-16-yl)pyrimidin-4-yl]methoxy}-7,8,15,16-tetrahydro-18,21-etheno-13,9-(metheno)-6,14,17-trioxa-2-thia-3,5-diazacyclononadeca[1,2,3-cd]indene-7-carboxylic Acid], the Ki on GST-MCL-1 (setting [3]) was found to be 2.94 nM; at GST-MCL-1 (setting [4]), 0.332 nM. Moreover, the IC50 stood at 2.97 nM in experiment [1] and 7.98 nM in experiment [2].

For the molecule `COCCOCCOCCOc1ccc(-c2nccc(COc3ccc4cc3C[C@H](C(=O)O)Oc3ncnc5sc(-c6ccc(F)cc6)c(c35)-c3ccc(c(Cl)c3C)O[C@H](CN3CCN(C)CC3)CO4)n2)cc1` (atropisomer, axis not shown) [Example 13, (7R,16R,21S)-19-chloro-1-(4-fluorophenyl)-10-{[2-(4-{2-[2-(2-methoxyethoxy)ethoxy]ethoxy}phenyl)pyrimidin-4-yl]methoxy}-20-methyl-16-[(4-methylpiperazin-1-yl)methyl]-7,8,15,16-tetrahydro-18,21-etheno-13,9-(metheno)-6,14,17-trioxa-2-thia-3,5-diazacyclononadeca[1,2,3-cd]indene-7-carboxylic Acid], the Ki at GST-MCL-1 (setting [3]) turned out to be 0.251 nM; on GST-MCL-1 (setting [4]) it was 0.054 nM. For the same molecule, the results for the IC50 in experiment [1] and in experiment [2] were 0.46 nM and 1 nM, respectively.

Take `COCCOCCOCCOc1cccc(-c2nccc(COc3ccc4cc3C[C@H](C(=O)O)Oc3ncnc5sc(-c6ccc(F)cc6)c(c35)-c3c(C)c(Cl)c(c(Cl)c3C)O[C@H](CN3CCN(C)CC3)CO4)n2)c1` [Example 104, (7R,16R)-19,23-dichloro-1-(4-fluorophenyl)-10-{[2-(3-{2-[2-(2-methoxyethoxy)ethoxy]ethoxy}phenyl)pyrimidin-4-yl]methoxy}-20,22-dimethyl-16-[(4-methylpiperazin-1-yl)methyl]-7,8,15,16-tetrahydro-18,21-etheno-13,9-(metheno)-6,14,17-trioxa-2-thia-3,5-diazacyclononadeca[1,2,3-cd]indene-7-carboxylic Acid]: the Ki at GST-MCL-1 (setting [3]) was found to be 0.089 nM; on GST-MCL-1 (setting [4]), 0.009 nM. Besides, the values for the IC50 in experiment [1] and in experiment [2] were 0.0488 nM and 0.0557 nM, respectively.

For the molecule `Cc1c(Cl)c2c(Cl)c(C)c1-c1c(-c3ccc(F)cc3)sc3ncnc(c13)O[C@@H](C(=O)O)Cc1cc(ccc1OCc1ccnc(C3=CCS(=O)(=O)CC3)n1)OC[C@@H](CN1CCN(C)CC1)O2` [Example 34, (7R,16R)-19,23-dichloro-10-{[2-(1,1-dioxo-1,2,3,6-tetrahydro-1λ^6-thiopyran-4-yl)pyrimidin-4-yl]methoxy}-1-(4-fluorophenyl)-20,22-dimethyl-16-[(4-methylpiperazin-1-yl)methyl]-7,8,15,16-tetrahydro-18,21-etheno-13,9-(metheno)-6,14,17-trioxa-2-thia-3,5-diazacyclononadeca[1,2,3-cd]indene-7-carboxylic Acid], the Ki was 0.276 nM at GST-MCL-1 (setting [3]) and 0.016 nM on GST-MCL-1 (setting [4]). Moreover, the IC50 in experiment [1] came to 1.23 nM; in experiment [2], 2.42 nM.

With `COCCOCCOC[C@@]1(F)CC=C(c2nccc(COc3ccc4cc3C[C@H](C(=O)O)Oc3ncnc5sc(C6=CCCC6)c(c35)-c3c(C)c(Cl)c(c(Cl)c3C)O[C@H](CN3CCN(C)CC3)CO4)n2)CC1` (relative stereo) [Example 135, (7R,16R)-19,23-dichloro-1-(cyclopent-1-en-1-yl)-10-({2-[(4S*)-4-fluoro-4-{[2-(2-methoxyethoxy)ethoxy]methyl}cyclohex-1-en-1-yl]pyrimidin-4-yl}methoxy)-20,22-dimethyl-16-[(4-methylpiperazin-1-yl)methyl]-7,8,15,16-tetrahydro-18,21-etheno-13,9-(metheno)-6,14,17-trioxa-2-thia-3,5-diazacyclononadeca[1,2,3-cd]indene-7-carboxylic Acid], the inhibition constant Ki is 0.489 nM on GST-MCL-1 (setting [3]) and 0.029 nM at GST-MCL-1 (setting [4]). Also, the figures for the IC50 in experiment [1] and in experiment [2] were 0.191 nM and 0.591 nM, respectively.

Take `CO[C@@H]1CO[C@H]2[C@@H]1OC[C@H]2OCCOc1ccc(-c2nccc(COc3ccc4cc3C[C@H](C(=O)O)Oc3ncnc5sc(-c6ccc(F)cc6)c(c35)-c3c(C)c(Cl)c(c(Cl)c3C)O[C@H](CN3CCN(C)CC3)CO4)n2)cc1` [Example 154, (7R,16R)-19,23-dichloro-1-(4-fluorophenyl)-10-({2-[4-(2-{[(3R,3aR,6R,6aR)-6-methoxyhexahydrofuro[3,2-b]furan-3-yl]oxy}ethoxy)phenyl]pyrimidin-4-yl}methoxy)-20,22-dimethyl-16-[(4-methylpiperazin-1-yl)methyl]-7,8,15,16-tetrahydro-18,21-etheno-13,9-(metheno)-6,14,17-trioxa-2-thia-3,5-diazacyclononadeca[1,2,3-cd]indene-7-carboxylic Acid]: the values for the Ki at GST-MCL-1 (setting [3]) and on GST-MCL-1 (setting [4]) were 0.191 nM and 0.018 nM, respectively. Further, the results for the IC50 in experiment [1] and in experiment [2] were 0.698 nM and 0.643 nM, respectively.

For the molecule `COCCOCCOCCOc1cccc(COc2ccc3cc2C[C@H](C(=O)O)Oc2ncnc4sc(-c5ccc(F)cc5)c(c24)-c2c(C)c(Cl)c(c(Cl)c2C)O[C@H](CN2CCN(C)CC2)CO3)c1` [Example 156, (7R,16R)-19,23-dichloro-1-(4-fluorophenyl)-10-[(3-{2-[2-(2-methoxyethoxy)ethoxy]ethoxy}phenyl)methoxy]-20,22-dimethyl-16-[(4-methylpiperazin-1-yl)methyl]-7,8,15,16-tetrahydro-18,21-etheno-13,9-(metheno)-6,14,17-trioxa-2-thia-3,5-diazacyclononadeca[1,2,3-cd]indene-7-carboxylic Acid], the Ki at GST-MCL-1 (setting [3]) turned out to be 23.6 nM; at GST-MCL-1 (setting [4]), 1.88 nM. The IC50 in experiment [1] amounted to 4.54 nM; in experiment [2], 11.1 nM.

On to `COCCOCCOCCO[C@H]1CC[C@H](c2nccc(COc3ccc4cc3C[C@H](C(=O)O)Oc3ncnc5sc(-c6ccc(F)cc6)c(c35)-c3c(C)c(Cl)c(c(Cl)c3C)O[C@H](CN3CCN(C)CC3)CO4)n2)CC1` [Example 57, (7R,16R)-19,23-dichloro-1-(4-fluorophenyl)-10-({2-[(1r,4r)-4-{2-[2-(2-methoxyethoxy)ethoxy]ethoxy}cyclohexyl]pyrimidin-4-yl}methoxy)-20,22-dimethyl-16-[(4-methylpiperazin-1-yl)methyl]-7,8,15,16-tetrahydro-18,21-etheno-13,9-(metheno)-6,14,17-trioxa-2-thia-3,5-diazacyclononadeca[1,2,3-cd]indene-7-carboxylic Acid], for which the Ki at GST-MCL-1 (setting [3]) was determined as 0.072 nM; on GST-MCL-1 (setting [4]), 0.013 nM. The IC50 in experiment [1] is 0.244 nM; in experiment [2], 0.37 nM.

Consider `COCCOCCOCCOCCOCCOCCOCCOCCOCCOCCOCCOCCOCC1(c2nccc(COc3ccc4cc3C[C@H](C(=O)O)Oc3ncnc5sc(-c6ccc(F)cc6)c(c35)-c3c(C)c(Cl)c(c(Cl)c3C)O[C@H](CN3CCN(C)CC3)CO4)n2)CCC1` [Example 44, (7R,16R)-19,23-dichloro-1-(4-fluorophenyl)-20,22-dimethyl-16-[(4-methylpiperazin-1-yl)methyl]-10-({2-[1-(2,5,8,11,14,17,20,23,26,29,32,35,38-tridecaoxanonatriacontan-1-yl)cyclobutyl]pyrimidin-4-yl}methoxy)-7,8,15,16-tetrahydro-18,21-etheno-13,9-(metheno)-6,14,17-trioxa-2-thia-3,5-diazacyclononadeca[1,2,3-cd]indene-7-carboxylic Acid], for which the values for the Ki on GST-MCL-1 (setting [3]) and at GST-MCL-1 (setting [4]) were 0.224 nM and 0.124 nM, respectively. The IC50 was found to be 21.1 nM in experiment [1] and 17.9 nM in experiment [2].

By Ki is commonly meant the dissociation constant of the complex between target and ligand, obtained from inhibition or displacement. For orientation: IC50 means the concentration that gives 50% inhibition.
